Test results published in patent publication US20260364184A1, “COMPOUND BASED ON OXOISOINDOLINYL-SUBSTITUTED TETRAHYDROPYRIMIDINE-DIONE AND USE THEREOF” (GLUETACS THERAPEUTICS (SHANGHAI) CO., LTD., priority 2023, published 2026).
Read-outs that look alike come from different tables or passages of the source.

Experiments:
Type in all cases: cell-based
[1] = test system: Human myeloid monocytic leukemia cell line (MV-4-11); test: Inhibition of MV-4-11 cell proliferation (CellTiter luminescent viability); settings: Homo sapiens, MV4-11; for inhibition at 0.01 µM: read-out: Inhibition Rate at 10 nM (%); for inhibition at 0.5 µM: read-out: Inhibition Rate at 500 nM (%)
Outline: (§1)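 Cells are seeded in 96-well plates, cultured at 37 °C, 5% CO2, and treated next day with 5-fold serial compound dilutions (stock series from 2000 μM; 0.5 μL into 100 μL medium). Viability is read by CellTiter-Meiluncell luminescence after the set exposure, and IC50 is taken from growth-inhibition curves.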

[2] = test system: Human breast cancer cell line (MDA-MB-231); test: Inhibition of MDA-MB-231 cell proliferation (CellTiter luminescent viability); settings: for inhibition at 0.01 µM: read-out: Inhibition Rate at 10 nM (%); for inhibition at 0.5 µM: read-out: Inhibition Rate at 500 nM (%)
Experimental: The tumor cells used herein were cultured in a cell culture medium listed in table 3 at 37 °C in an incubator with 5% CO2. Prior to experimentation, all cell lines used were correctly identified by STR profiling, and tested negative for mycoplasma contamination using a mycoplasma detection kit through routine screenings.
The IC50 values of the compounds of the present disclosure (including the compounds in Table 1, Table 2, and Examples 1-468) were determined using the CellTiter-Meiluncell Luminescent Cell Viability Assay Kit from Dalian Meilun Biotech Co., Ltd. The detailed procedure is as follows: Tumor cells were seeded in 96-well cell culture plates at the densities specified in Table 4. On the following day, the test compounds of the present disclosure were subjected to serial dilution. The dilution can be performed according to one of the following two methods: • (1) The first dilution method: The test compounds of the present disclosure (including the compounds in Table 1, Table 2, and Examples 1-468) were subjected to 5-fold serial dilutions starting from a highest concentration of 2000 μM, resulting in a total of 9 concentrations from high to low (2000, 400, 80, 16, 3.2, 0.64, 0.128, 0.0256, 0.00512 μM). Subsequently, 0.5 μL of the test compound dilution was transferred into the 96-well plate containing the cells, with each well containing 100 μL of cell culture medium. […] Into the 96-well plate, the diluted test compounds and corresponding detection reagents were added, resulting in final test compound concentrations of 500 nM and 10 nM, respectively. The experimental procedure is described below using the diluted 2 μM test compound as an example.
0.5 μL of the aforementioned diluted compound of the present disclosure (including the compounds in Table 1, Table 2, and Examples 1-468) was added to the seeded cells in 100 μL of medium, yielding a final test compound concentration of 10 nM. After the cells were treated with the compounds of the present disclosure for a specified period, the cell viability assay reagent was added to the culture medium according to the kit's instructions to determine cell viability. […] All controls were treated using the same procedure as the compounds of the present disclosure. The growth inhibition curves for the compounds of the present disclosure were plotted using Prism GraphPad software, and the IC50 values were calculated therefrom.

AR = biological target: T1, AR (Homo sapiens, UniProt P10275); test: Western blot degradation of AR; settings: LnCap Cell; 24 hours
T1 construct: expression of target proteins in cells; endogenous in cells
T1 sequence (P10275 1-920): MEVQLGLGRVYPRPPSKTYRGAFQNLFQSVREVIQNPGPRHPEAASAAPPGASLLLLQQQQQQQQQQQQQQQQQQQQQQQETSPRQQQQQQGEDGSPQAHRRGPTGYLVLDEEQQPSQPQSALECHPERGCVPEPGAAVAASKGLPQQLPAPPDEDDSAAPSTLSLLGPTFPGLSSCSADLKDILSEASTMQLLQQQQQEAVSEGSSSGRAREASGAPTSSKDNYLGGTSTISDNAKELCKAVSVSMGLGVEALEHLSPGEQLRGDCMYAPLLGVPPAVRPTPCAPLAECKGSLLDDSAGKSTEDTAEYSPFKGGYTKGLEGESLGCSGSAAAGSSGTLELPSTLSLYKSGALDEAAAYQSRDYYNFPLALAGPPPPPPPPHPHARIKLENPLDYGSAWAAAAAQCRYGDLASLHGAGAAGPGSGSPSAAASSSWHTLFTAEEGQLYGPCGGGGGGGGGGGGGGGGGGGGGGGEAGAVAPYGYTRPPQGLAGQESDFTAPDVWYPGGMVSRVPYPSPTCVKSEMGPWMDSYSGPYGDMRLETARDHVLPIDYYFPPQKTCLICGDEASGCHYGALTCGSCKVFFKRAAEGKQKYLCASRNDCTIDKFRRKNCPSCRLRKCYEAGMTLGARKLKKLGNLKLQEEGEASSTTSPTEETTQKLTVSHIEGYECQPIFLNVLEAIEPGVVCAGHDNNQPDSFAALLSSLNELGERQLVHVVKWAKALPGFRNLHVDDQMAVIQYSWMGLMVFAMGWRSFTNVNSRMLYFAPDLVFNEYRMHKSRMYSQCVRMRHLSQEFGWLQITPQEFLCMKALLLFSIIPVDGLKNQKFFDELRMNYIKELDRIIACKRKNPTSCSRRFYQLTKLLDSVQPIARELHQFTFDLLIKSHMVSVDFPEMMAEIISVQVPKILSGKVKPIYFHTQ
Experimental: Conventional Western blot assay was performed to evaluate the effects of the compounds of the present disclosure on the expression of target proteins in cells.
(1) Cell Seeding and Protein Harvesting: The selected cells were processed according to the cell seeding procedure and protein harvesting procedure in Table II-2.
(2) To the collected supernatant, 5×SDS sample loading buffer was added, followed by denaturation at 95 °C for 5 minutes. The denatured samples were then separated by SDS-PAGE electrophoresis on a polyacrylamide gel. Proteins were transferred to a nitrocellulose membrane (0.45 μm NC membrane), blocked with blocking buffer at room temperature for 1 hour, and subjected to antibody incubation and development procedures according to the antibody manufacturer's instructions (Cell Signaling Technology).
Half-Maximal Degradation Concentration value (the drug concentration required for degrading proteins by 50%, abbreviated as DC50) reads method: comparing the grayscale values of Western blot bands from drug-treated samples with those from blank DMSO-treated controls, and identifying the drug concentration range at which the grayscale value is half that of the DMSO-treated control bands.
DC50 values can be calculated using ImageJ software to measure grayscale values of Western blot bands from drug-treated samples. The concentration-response curve is fitted to estimate the drug concentration corresponding to half the grayscale value.
Target protein remaining (%) refers to the percentage of target protein remaining in cells after treatment with protein degrader compounds.
Calculation method for target protein remaining (%): Use ImageJ software to measure grayscale values of Western blot bands from drug (protein degrader)-treated samples. The grayscale value of drug-treated bands is divided by that of internal control protein bands, and the resulting quotient is normalized to obtain the relative percentage of remaining target protein after protein degrader treatment.
Target protein degradation rate (%)=1−target protein remaining (%).

[3] = test system: Human Multiple myeloma cell line (MM.1S); test: Inhibition of MM.1S cell proliferation (CellTiter luminescent viability); settings: Homo sapiens, MM1.S, Table IG1, FAK inhibitor-based, 96 hours; for inhibition at 0.01 µM: 10 nM, read-out: Inhibition Rate at 10 nM (%); for inhibition at 0.5 µM: 500 nM, read-out: Inhibition Rate at 500 nM (%)
Outline: as §1

[4] = test system: Human lung cancer cell line (H292); test: Inhibition of H292 cell proliferation (CellTiter luminescent viability); settings: NCI-H292, H292 cell; for inhibition at 0.01 µM: 10 nM, read-out: Inhibition Rate at 10 nM (%); for inhibition at 0.5 µM: 500 nM, read-out: Inhibition Rate at 500 nM (%)
[5] = Table IG2, FAK inhibitor-based, MV-4-11, 10 nM, 96 hours
[6] = Table IG2, FAK inhibitor-based, MV-4-11, 500 nM, 96 hours
[7] = Table IG3, FAK inhibitor-based, MDA-MB-231, 10 nM, 96 hours
[8] = Table IG3, FAK inhibitor-based, MDA-MB-231, 500 nM, 96 hours

Row | Structure (SMILES) | inhibition at 0.01 µM [1, 5] | inhibition at 0.5 µM [1, 6] | inhibition at 0.01 µM [2, 7] | inhibition at 0.5 µM [2, 8] | Degradation of substrate protein AR (substrate protein remaining %) (AR) | inhibition at 0.01 µM [3] | inhibition at 0.5 µM [3] | inhibition at 0.01 µM ([1]; MV-4-11 cell, 10 nM) | inhibition at 0.5 µM ([1]; MV-4-11 cell, 500 nM) | inhibition at 0.01 µM [4] | inhibition at 0.5 µM [4] | inhibition at 0.01 µM ([2]; MDA-MB-231 cell, 10 nM) | inhibition at 0.5 µM ([2]; MDA-MB-231 cell, 500 nM)
1 | CN(Cc1ccc2c(c1)C(=O)N(N1CCC(=O)NC1=O)C2)C1CCN(c2ccc(Nc3ncc(C(F)(F)F)c(NCc4nccnc4N(C)S(C)(=O)=O)n3)cc2)CC1 [GT-08136, N-(3-(((2-((4-(4-(((2-(2,4-dioxotetrahydropyrimidin-1(2H)-yl)-3-oxoisoindolin-5-yl)methyl)(methyl)amino)piperidin-1-yl)phenyl)amino)-5-(trifluoromethyl)pyrimidin-4-yl)amino)methyl)pyrazin-2-yl)-N-methylmethanesulfonamide] | -5 to 0% | 80 to 100% | 20 to 30% | 50 to 60% | – | – | – | – | – | – | – | – | –
2 | Cc1ccc(-c2c(C)noc2C)cc1N(CC1CCN(CC2CCN(c3ccc4c(c3)C(=O)N(N3CCC(=O)NC3=O)C4=O)CC2)CC1)c1ccc(C2(C#N)CC2)cc1 [GT-06418, 1-(4-((5-(3,5-dimethylisoxazol-4-yl)-2-methylphenyl)((1-((1-(2-(2,4-dioxotetrahydropyrimidin-1(2H)-yl)-1,3-dioxoisoindolin-5-yl)piperidin-4-yl)methyl)piperidin-4-yl)methyl)amino)phenyl)cyclopropane-1-carbonitrile] | – | – | – | – | A (0%≤substrate protein remaining %≤80%) | – | – | – | – | – | – | – | –
3 | CC1(C)[C@H](NC(=O)c2ccc(N3CCC(CN4CCN(c5ccc6c(c5F)C(=O)N(N5CCC(=O)NC5=O)C6=O)CC4)CC3)nc2)C(C)(C)[C@H]1Oc1ccc(C#N)c(Cl)c1 [GT-05828, N-((1r,3r)-3-(3-chloro-4-cyanophenoxy)-2,2,4,4-tetramethylcyclobutyl)-6-(4-((4-(2-(2,4-dioxotetrahydropyrimidin-1(2H)-yl)-4-fluoro-1,3-dioxoisoindolin-5-yl)piperazin-1-yl)methyl)piperidin-1-yl)nicotinamide] | – | – | – | – | A (0%≤substrate protein remaining %≤80%) | – | – | – | – | – | – | – | –
4 | CN(c1nccnc1CNc1nc(Nc2ccc(N3CCC(N4CCN(CC5CCN(c6cccc7c6C(=O)N(N6CCC(=O)NC6=O)C7=O)CC5)CC4)CC3)cc2)ncc1C(F)(F)F)S(C)(=O)=O [GT-08245, N-(3-(((2-((4-(4-(4-((1-(2-(2,4-dioxotetrahydropyrimidin-1(2H)-yl)-1,3-dioxoisoindolin-4-yl)piperidin-4-yl)methyl)piperazin-1-yl)piperidin-1-yl)phenyl)amino)-5-(trifluoromethyl)pyrimidin-4-yl)amino)methyl)pyrazin-2-yl)-N-methylmethanesulfonamide] | 20 to 30% | 80 to 100% | 30 to 40% | 80 to 100% | – | 5 to 10% | 80 to 100% | – | – | – | – | – | –
5 | Nc1cccc2c1CN(C1CCC(=O)NC1=O)C2=O (stereo not drawn) [Lenalidomide, lenalidomide, reference compound] | – | – | – | – | – | – | – | 20 to 30% | 10 to 15% | 15 to 20% | 0 to 5% | 0 to 5% | 0 to 5%
6 | NCc1ccc2c(c1)CN(N1CCC(=O)NC1=O)C2=O [GT-08118, 1-(5-(aminomethyl)-1-oxoisoindolin-2-yl)dihydropyrimidine-2,4(1H, 3H)-dione] | – | – | – | – | – | – | – | 40 to 50% | 50 to 60% | 20 to 30% | 20 to 30% | 20 to 30% | 20 to 30%
7 | CN(c1cccc(CNc2nc(Nc3ccc(N4CCC(N5CCN(CC6CCN(c7cccc8c7C(=O)N(N7CCC(=O)NC7=O)C8=O)CC6)CC5)CC4)cc3)ncc2C(F)(F)F)c1)S(C)(=O)=O [GT-08248, N-(3-(((2-((4-(4-(4-((1-(2-(2,4-dioxotetrahydropyrimidin-1(2H)-yl)-1,3-dioxoisoindolin-4-yl)piperidin-4-yl)methyl)piperazin-1-yl)piperidin-1-yl)phenyl)amino)-5-(trifluoromethyl)pyrimidin-4-yl)amino)methyl)phenyl)-N-methylmethanesulfonamide] | 20 to 30% | 80 to 100% | 20 to 30% | 70 to 80% | – | 30 to 40% | 60 to 80% | – | – | – | – | – | –
8 | CNC(=O)c1ccc(Nc2ncc(C(F)(F)F)c(NCc3nccnc3N(C)S(C)(=O)=O)n2)cc1 [Defactinib, reference compound] | 5 to 10% | 60 to 70% | 30 to 40% | 30 to 40% | – | 5 to 10% | 5 to 10% | – | – | – | – | – | –
9 | CNC(=O)c1ccccc1Nc1cc(Nc2ccc(N3CCOCC3)cc2OC)ncc1C(F)(F)F [PND-1186, reference compound] | 5 to 10% | 60 to 70% | 30 to 40% | 40 to 50% | – | 5 to 10% | 20 to 30% | – | – | – | – | – | –
